Test results from PubChem BioAssay (NCI).
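Each compound was tested at five concentrations against cells in 96-well plates for 48 hours. Abbreviation: GI50, concentration required for 50% inhibition of growth. TGI marks complete inhibition of growth.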

How the values were obtained:
Assay in all cases: inhibition of tumour cell growth, NCI panel, 48 h
SR leukemia = tested on: SR leukemia
A498 renal = tested on: A498 renal
MOLT-4 leukemia = tested on: MOLT-4 leukemia
CAKI-1 renal = tested on: CAKI-1 renal
OVCAR-3 ovarian = tested on: OVCAR-3 ovarian
OVCAR-4 ovarian = tested on: OVCAR-4 ovarian
IGROV1 ovarian = tested on: IGROV1 ovarian
NCI-H226 lung = tested on: NCI-H226 lung
ACHN renal = tested on: ACHN renal
OVCAR-5 ovarian = tested on: OVCAR-5 ovarian

## O=C(NCCNc1nccc(-c2c(-c3cccc(O)c3)nc3sccn23)n1)c1ccccc1O
SR leukemia
  GI50: 3.71 µM
  TGI: > 56.7 µM
A498 renal
  GI50: 7.67 µM
  TGI: 28.2 µM
MOLT-4 leukemia
  GI50: 4.87 µM
  TGI: > 52.2 µM
CAKI-1 renal
  GI50: 3.23 µM
  TGI: 21.8 µM
OVCAR-3 ovarian
  GI50: 5.57 µM
  TGI: 47.8 µM
OVCAR-4 ovarian
  GI50: 6.67 µM
  TGI: 53.6 µM
IGROV1 ovarian
  GI50: 4.52 µM
  TGI: > 73 µM
NCI-H226 lung
  GI50: 9.24 µM
  TGI: 32.3 µM
ACHN renal
  GI50: 3.35 µM
  TGI: > 53.4 µM
OVCAR-5 ovarian
  GI50: 13.3 µM
  TGI: 65.3 µM

## O=C(CN1CCN(c2cc3c(cc2F)c(=O)c(C(=O)N/N=C/c2ccccc2O)cn3C2CC2)CC1)N/N=C\c1ccccc1O
SR leukemia
  GI50: 0.304 µM
  TGI: > 100 µM
A498 renal
  GI50: 6.03 µM
  TGI: > 100 µM
MOLT-4 leukemia
  GI50: 0.267 µM
  TGI: > 100 µM
CAKI-1 renal
  GI50: 1.1 µM
  TGI: > 100 µM
OVCAR-3 ovarian
  GI50: 0.269 µM
  TGI: > 100 µM
OVCAR-4 ovarian
  GI50: 0.204 µM
  TGI: > 100 µM
IGROV1 ovarian
  GI50: 0.787 µM
  TGI: > 100 µM
NCI-H226 lung
  GI50: 3.71 µM
  TGI: > 100 µM
ACHN renal
  GI50: 0.351 µM
  TGI: > 100 µM
OVCAR-5 ovarian
  GI50: 1.62 µM
  TGI: > 100 µM

## CCCCCCCC(=O)SCC/C=C/[C@@H]1CC(=O)NCc2cccc(n2)C2=N[C@@](C)(CS2)C(=O)N[C@@H](C(C)C)C(=O)N1
SR leukemia
  GI50: 0.498 µM
  TGI: > 33.3 µM
A498 renal
  GI50: 0.394 µM
  TGI: 6.2 µM
MOLT-4 leukemia
  GI50: 1.01 µM
  TGI: > 33.3 µM
CAKI-1 renal
  GI50: 16.9 µM
  TGI: > 33.3 µM
OVCAR-3 ovarian
  GI50: 0.402 µM
  TGI: 9.27 µM
OVCAR-4 ovarian
  GI50: 0.766 µM
  TGI: > 33.3 µM
IGROV1 ovarian
  GI50: 0.224 µM
  TGI: 15.2 µM
NCI-H226 lung
  GI50: 7.19 µM
  TGI: > 33.3 µM
ACHN renal
  GI50: 2.71 µM
  TGI: > 33.3 µM
OVCAR-5 ovarian
  GI50: 0.771 µM
  TGI: > 33.3 µM

## O=c1n(CC2CO2)c(=O)n(CC2CO2)n1CC1CO1 (stereo not drawn)
SR leukemia
  TGI: > 100 µM
A498 renal
  GI50: 14.1 µM
  TGI: 29.9 µM
MOLT-4 leukemia
  GI50: 4.46 µM
  TGI: > 100 µM
CAKI-1 renal
  GI50: 2.22 µM
  TGI: 21.7 µM
OVCAR-3 ovarian
  GI50: 13.7 µM
  TGI: > 55.5 µM
OVCAR-4 ovarian
  GI50: 19.2 µM
  TGI: > 85 µM
IGROV1 ovarian
  GI50: 13.2 µM
  TGI: 41.1 µM
NCI-H226 lung
  GI50: 40.6 µM
  TGI: > 100 µM
ACHN renal
  GI50: 2.69 µM
  TGI: > 100 µM
OVCAR-5 ovarian
  GI50: 63.1 µM
  TGI: > 100 µM

## COc1cc(C(=O)/C=C/c2sc(Cl)nc2Cl)cc(OC)c1OC
SR leukemia
  GI50: 0.384 µM
  TGI: 3.23 µM
A498 renal
  GI50: 7.62 µM
  TGI: 20.5 µM
MOLT-4 leukemia
  GI50: 2.21 µM
  TGI: 5.49 µM
CAKI-1 renal
  GI50: 1.61 µM
  TGI: 2.99 µM
OVCAR-3 ovarian
  GI50: 1.77 µM
  TGI: 3.21 µM
OVCAR-4 ovarian
  GI50: 1.77 µM
  TGI: 3.19 µM
IGROV1 ovarian
  GI50: 1.68 µM
  TGI: 3.22 µM
NCI-H226 lung
  GI50: 2.4 µM
  TGI: 6.31 µM
ACHN renal
  GI50: 1.74 µM
  TGI: 3.12 µM
OVCAR-5 ovarian
  GI50: 1.72 µM
  TGI: 3.27 µM

## O=C(CCl)N1c2ccccc2Oc2ccc3ccccc3c21
SR leukemia
  GI50: 0.305 µM
  TGI: 1.06 µM
A498 renal
  GI50: 2.44 µM
  TGI: 6.97 µM
MOLT-4 leukemia
  GI50: 0.339 µM
  TGI: 1.95 µM
CAKI-1 renal
  GI50: 1.02 µM
  TGI: 3.8 µM
OVCAR-3 ovarian
  GI50: 1.23 µM
  TGI: 2.64 µM
OVCAR-4 ovarian
  GI50: 1.44 µM
  TGI: 3.34 µM
IGROV1 ovarian
  GI50: 0.83 µM
  TGI: 2.53 µM
NCI-H226 lung
  GI50: 1.63 µM
  TGI: 3.26 µM
ACHN renal
  GI50: 1.37 µM
  TGI: 2.82 µM
OVCAR-5 ovarian
  GI50: 1.81 µM
  TGI: 3.59 µM

## CC1(C)OC(=O)C(=Cc2ccc(O)cc2)C(=O)O1
SR leukemia
  TGI: > 100 µM
A498 renal
  TGI: > 100 µM
MOLT-4 leukemia
  TGI: > 100 µM
CAKI-1 renal
  TGI: > 100 µM
OVCAR-3 ovarian
  TGI: > 100 µM
OVCAR-4 ovarian
  TGI: > 100 µM
IGROV1 ovarian
  TGI: > 100 µM
NCI-H226 lung
  TGI: > 100 µM
ACHN renal
  TGI: > 100 µM
OVCAR-5 ovarian
  TGI: > 100 µM

## COc1ccc(/C=C\c2cc(OC)c3c(c2)OCO3)c(O)c1O
SR leukemia
  TGI: > 41.5 µM
A498 renal
  TGI: 31.2 µM
MOLT-4 leukemia
  TGI: 47.5 µM
CAKI-1 renal
  TGI: 20.5 µM
OVCAR-3 ovarian
  TGI: 47.4 µM
OVCAR-4 ovarian
  TGI: 20.6 µM
IGROV1 ovarian
  TGI: 20.9 µM
NCI-H226 lung
  TGI: 45.9 µM
ACHN renal
  TGI: 32.7 µM
OVCAR-5 ovarian
  TGI: 55 µM

## CC[C@@]12CCCN3CC[C@]4(c5cccc(OC)c5N(C(C)=O)[C@@H]4CC1)[C@H]32
SR leukemia
  TGI: 55.9 µM
A498 renal
  TGI: > 100 µM
MOLT-4 leukemia
  TGI: 61.3 µM
CAKI-1 renal
  TGI: > 100 µM
OVCAR-3 ovarian
  TGI: > 100 µM
OVCAR-4 ovarian
  TGI: > 100 µM
IGROV1 ovarian
  TGI: > 100 µM
NCI-H226 lung
  TGI: > 100 µM
ACHN renal
  TGI: > 100 µM
OVCAR-5 ovarian
  TGI: > 100 µM

## CC(=O)N1[C@H](C(=O)O)CS[C@H]1c1ccncc1
SR leukemia
  TGI: > 100 µM
A498 renal
  TGI: > 100 µM
MOLT-4 leukemia
  TGI: > 100 µM
CAKI-1 renal
  TGI: > 100 µM
OVCAR-3 ovarian
  TGI: > 100 µM
OVCAR-4 ovarian
  TGI: > 100 µM
IGROV1 ovarian
  TGI: > 100 µM
NCI-H226 lung
  TGI: > 100 µM
ACHN renal
  TGI: > 100 µM
OVCAR-5 ovarian
  TGI: > 100 µM

## CCOC(=O)Nc1nc2ccc(OCC)cc2s1
SR leukemia
  GI50: 1.12 µM
  TGI: > 100 µM
A498 renal
  GI50: > 100 µM
  TGI: > 100 µM
MOLT-4 leukemia
  GI50: 59.4 µM
  TGI: > 100 µM
CAKI-1 renal
  GI50: > 100 µM
  TGI: > 100 µM
OVCAR-3 ovarian
  GI50: > 41.6 µM
  TGI: > 100 µM
OVCAR-4 ovarian
  GI50: > 82.5 µM
  TGI: > 100 µM
IGROV1 ovarian
  GI50: 31.7 µM
  TGI: > 100 µM
NCI-H226 lung
  GI50: > 100 µM
  TGI: > 100 µM
ACHN renal
  GI50: > 100 µM
  TGI: > 100 µM
OVCAR-5 ovarian
  GI50: > 100 µM
  TGI: > 100 µM

## CN(C)c1ccc(-c2cc(-c3ccc(Nc4nc(Nc5ccc(Cl)cc5)nc(Nc5ccc(Cl)cc5)n4)cc3)no2)cc1
SR leukemia
  TGI: 1.74 µM
A498 renal
  GI50: 4.38 µM
  TGI: 22.7 µM
MOLT-4 leukemia
  GI50: 1.32 µM
  TGI: 3.38 µM
CAKI-1 renal
  GI50: 2.8 µM
  TGI: > 100 µM
OVCAR-3 ovarian
  GI50: 3.42 µM
  TGI: 8.96 µM
OVCAR-4 ovarian
  GI50: 7.19 µM
  TGI: > 100 µM
IGROV1 ovarian
  GI50: 2.06 µM
  TGI: 15 µM
NCI-H226 lung
  GI50: 20.2 µM
  TGI: > 100 µM
ACHN renal
  GI50: 7.9 µM
  TGI: > 100 µM
OVCAR-5 ovarian
  GI50: 17.3 µM
  TGI: 50.2 µM

## Cn1ccnc1C(=O)/C=C/c1ccc(CC(=O)Nc2ccc(Br)cc2)cc1
SR leukemia
  GI50: 0.575 µM
  TGI: > 16.7 µM
A498 renal
  GI50: 4.35 µM
  TGI: 12.6 µM
MOLT-4 leukemia
  GI50: 3.69 µM
  TGI: 14.8 µM
CAKI-1 renal
  GI50: 3.59 µM
  TGI: 11.6 µM
OVCAR-3 ovarian
  GI50: 4.02 µM
  TGI: 14.4 µM
OVCAR-4 ovarian
  GI50: 4.52 µM
  TGI: > 16.7 µM
IGROV1 ovarian
  GI50: 2.97 µM
  TGI: 10.6 µM
NCI-H226 lung
  GI50: 4.15 µM
  TGI: > 16.7 µM
ACHN renal
  GI50: 4.4 µM
  TGI: > 16.7 µM
OVCAR-5 ovarian
  GI50: 2.74 µM
  TGI: 7.38 µM

## Nc1cc2nc3ccccc3sc-2cc1=O
SR leukemia
  GI50: 4.27 µM
  TGI: > 100 µM
A498 renal
  GI50: 2.32 µM
  TGI: 8.71 µM
MOLT-4 leukemia
  GI50: 4.26 µM
  TGI: > 100 µM
CAKI-1 renal
  GI50: 5.66 µM
  TGI: 22.1 µM
OVCAR-3 ovarian
  GI50: 1.76 µM
  TGI: 7.09 µM
OVCAR-4 ovarian
  GI50: 2.15 µM
  TGI: 6.21 µM
IGROV1 ovarian
  GI50: 3.02 µM
  TGI: 13.1 µM
NCI-H226 lung
  GI50: 4.62 µM
  TGI: 28.4 µM
ACHN renal
  GI50: 2.5 µM
  TGI: 11.1 µM
OVCAR-5 ovarian
  GI50: 1.93 µM
  TGI: 4.08 µM
